The values that follow come from patent US20260347361A1, “LRRK2 INHIBITORS AND USES THEREOF” (NEURON23, INC, priority 2022, published 2026).

pIC50: −log10 of the molar value. A value given as a limit tells only on which side of the number the result lay.

T1 sequence (Q5S007 970-2527 limits assumed): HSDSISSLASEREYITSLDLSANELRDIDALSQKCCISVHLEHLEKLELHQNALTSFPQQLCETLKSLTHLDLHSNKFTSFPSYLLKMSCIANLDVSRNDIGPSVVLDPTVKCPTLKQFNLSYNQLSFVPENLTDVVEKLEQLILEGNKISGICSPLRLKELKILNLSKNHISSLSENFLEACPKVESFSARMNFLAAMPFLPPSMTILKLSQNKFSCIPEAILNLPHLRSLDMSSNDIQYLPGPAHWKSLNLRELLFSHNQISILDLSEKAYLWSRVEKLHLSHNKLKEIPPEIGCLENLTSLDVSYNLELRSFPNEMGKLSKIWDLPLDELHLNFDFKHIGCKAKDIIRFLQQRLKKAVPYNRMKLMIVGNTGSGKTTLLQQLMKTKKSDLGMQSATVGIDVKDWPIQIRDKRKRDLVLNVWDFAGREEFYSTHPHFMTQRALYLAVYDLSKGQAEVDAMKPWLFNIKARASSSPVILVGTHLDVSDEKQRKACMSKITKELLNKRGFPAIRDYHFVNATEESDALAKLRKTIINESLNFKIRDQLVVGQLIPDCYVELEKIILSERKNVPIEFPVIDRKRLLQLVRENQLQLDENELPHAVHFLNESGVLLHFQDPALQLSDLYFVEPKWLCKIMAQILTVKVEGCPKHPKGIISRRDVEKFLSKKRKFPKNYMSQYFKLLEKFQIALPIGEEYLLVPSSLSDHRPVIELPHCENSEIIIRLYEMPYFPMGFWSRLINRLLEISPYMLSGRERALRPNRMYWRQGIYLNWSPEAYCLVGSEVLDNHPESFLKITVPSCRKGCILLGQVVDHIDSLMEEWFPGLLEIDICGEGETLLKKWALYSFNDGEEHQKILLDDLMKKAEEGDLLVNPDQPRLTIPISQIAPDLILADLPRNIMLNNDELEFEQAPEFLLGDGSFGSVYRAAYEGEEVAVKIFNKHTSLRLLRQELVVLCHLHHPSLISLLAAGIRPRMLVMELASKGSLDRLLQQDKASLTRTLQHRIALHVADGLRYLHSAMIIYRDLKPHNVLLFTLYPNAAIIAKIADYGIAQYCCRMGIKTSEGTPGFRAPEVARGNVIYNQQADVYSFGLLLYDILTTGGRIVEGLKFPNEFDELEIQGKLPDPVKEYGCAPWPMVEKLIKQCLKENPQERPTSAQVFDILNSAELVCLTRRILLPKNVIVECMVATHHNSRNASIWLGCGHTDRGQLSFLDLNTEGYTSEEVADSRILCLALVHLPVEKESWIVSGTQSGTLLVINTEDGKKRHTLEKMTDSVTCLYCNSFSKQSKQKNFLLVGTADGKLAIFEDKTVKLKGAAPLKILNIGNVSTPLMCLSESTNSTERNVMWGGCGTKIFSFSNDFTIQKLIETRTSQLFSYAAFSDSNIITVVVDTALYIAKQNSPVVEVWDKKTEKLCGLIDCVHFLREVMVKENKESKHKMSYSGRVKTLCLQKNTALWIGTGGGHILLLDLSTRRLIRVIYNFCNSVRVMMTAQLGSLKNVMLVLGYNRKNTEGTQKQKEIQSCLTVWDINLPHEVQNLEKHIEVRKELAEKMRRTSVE

This assay concerns the target T1, wt human LRRK2 (Homo sapiens, UniProt Q5S007).
T1 construct: wt human LRRK2, catalytic site, catalytic site (ThermoFisher/USA); purchased ThermoFisher
Nature of the assay: TR-FRET LanthaScreen Tb Kinase Activity Assay, inhibition of LRRK2 kinase. Format: biochemical. As to conditions: 2 nM wt human LRRK2, 400 nM fluorescein-ERM (LRRKtide) peptide, 38 µM ATP, 15 min pre-incubation, 120 min at room temperature. How it is done:
In Table 2, activity is provided as the following: “+++”=IC50 less than 50 nM; “++”=IC50 between 50 nM and 200 nM; “+”=IC50> or =200 nM.
The compounds listed in Table 2 were tested for their inhibitory effect on LRRK2 kinase according to the following procedures.
The protocol for basic TR-FRET LanthaScreen Tb Kinase Activity Assay inhibitor studies were as follows. LanthaScreen Kinase Activity Assays (ThermoFisher/USA) to evaluate inhibitors were performed by addition of 100 nl of test compound in corresponding DMSO dilutions/5 μl of kinase/fluorescein-ERM(LRRKtide) peptide mixture, Compound & kinase were pre-incubated for 15 minutes, then 5 μl of ATP into 384 well small volume plates. After incubation for 120 minutes at room temperature, the detection reagents containing Tb-anti-pLRRKtide antibody were added to monitor phosphorylation level of peptide. Then, after 60 min minutes incubation at room temperature plates were read in Envision. Data analysis of emission ratios was according to LanthaScreen Tb Kinase Activity Assay protocol.
Kinase and assay components were adjusted to final concentrations according to the kit protocol. For LRRK2: 2 nM wt human LRRK2, catalytic site, catalytic site (ThermoFisher/USA), 400 nM peptide, 38 µM ATP in 1× Kinase Buffer A.
Basic protocol for TR-FRET LanthaScreen Tb Kinase Activity Assay inhibitor studies involved two steps:
Enzymatic step: Addition of […] of test compound in corresponding DMSO dilutions, 5 μL of kinase/substrate mixture, 5 μL of ATP into 384 well small volume plates. Incubation for 120 minutes at room temperature.
Detection step: Addition of 10 μL EDTA & antibody, read plate after 60 minutes. Data analysis of emission ratios according to KinEASE assay protocol.
Kinase and assay components were adjusted to final concentrations according to the kit protocol.
In the case of `O=S1(=O)CCN(c2ccc3c(c2)-n2ncc(Cl)c2N=C(c2c(F)cccc2F)N3)CC1`, the pIC50 (as a rule, −log10 of the IC50, conventionally taken in molar units) was over 7.30.
As for `Fc1cccc(F)c1C1=Nc2c(Cl)cnn2-c2cc(-c3cn[nH]c3)ccc2N1`, the figure is over 7.30.
As for `CC(C)S(=O)(=O)NC(=O)c1ccc2c(c1)-n1ncc(Cl)c1N=C(c1c(F)cccc1F)N2`, the figure is under 6.70; as for `Fc1cccc(F)c1C1=Nc2c(Cl)cnn2-c2cc(N3CCOCC3)cnc2N1`, over 7.30; as for `OC1CCN(c2ccc3c(c2)-n2ncc(Cl)c2N=C(c2c(F)cccc2F)N3)C1` (racemic) [1-[3-chloro-5-(2,6-difluorophenyl)-6H-pyrazolo[1,5-a][1,3,5]benzotriazepin-9-yl]pyrrolidin-3-ol], over 7.30.
`COC1CCN(c2ccc3c(c2)-n2ncc(Cl)c2N=C(c2c(F)cccc2F)N3)C1` (racemic) [3-chloro-5-(2,6-difluorophenyl)-9-(3-methoxypyrrolidin-1-yl)-6H-pyrazolo[1,5-a][1,3,5]benzotriazepine] gave a pIC50 of over 7.30.
As for `Fc1cccc(F)c1C1=Nc2c(Cl)cnn2-c2cc(N3CC4CC3CO4)ccc2N1` (racemic) [5-(3-chloro-5-(2,6-difluorophenyl)-6H-benzo[f]pyrazolo[1,5-a][1,3,5]triazepin-9-yl)-2-oxa-5-azabicyclo[2.2.1]heptane], the figure is over 7.30.
The value for `Fc1cccc(F)c1C1=Nc2c(Cl)cnn2-c2cc(N3CCC34COC4)ccc2N1` [1-[3-chloro-5-(2,6-difluorophenyl)-6H-pyrazolo[1,5-a][1,3,5]benzotriazepin-9-yl]-6-oxa-1-azaspiro[3.3]heptane] was over 7.30.
As for `Fc1cccc(F)c1C1=Nc2c(Cl)cnn2-c2cc(N3CC4CCC(C3)O4)ncc2N1` [3-(3-Chloro-5-(2,6-difluorophenyl)-6H-pyrazolo[1,5-a]pyrido[3,4-f][1,3,5]triazepin-9-yl)-8-oxa-3-azabicyclo[3.2.1]octane], the figure is over 7.30; as for `Fc1cccc(F)c1C1=Nc2c(Cl)cnn2-c2cc(N3CC4CC(C3)O4)ccc2N1` [3-[3-chloro-5-(2,6-difluorophenyl)-6H-pyrazolo [1,5-a][1,3,5]benzotriazepin-9-yl]-6-oxa-3-azabicyclo [3.1.1]heptane], over 7.30; as for `O=C(NO)c1ccc2c(c1)-n1ncc(Cl)c1N=C(c1c(F)cccc1F)N2` [3-chloro-5-(2,6-difluorophenyl)-6H-pyrazolo[1,5-a][1,3,5]benzotriazepine-9-carbohydroxamic acid], over 7.30.
The compound `NC(=O)c1ccc2c(c1)-n1ncc(Cl)c1N=C(c1c(F)cccc1F)N2` [3-chloro-5-(2,6-difluorophenyl)-6H-pyrazolo[1,5-a][1,3,5]benzotriazepine-9-carboxamide] gave a pIC50 of over 7.30.
The value for `Cn1cc(-c2ccc3c(c2)-n2ncc(Cl)c2N=C(c2c(F)cccc2F)N3)cn1` [3-chloro-5-(2,6-difluorophenyl)-9-(1-methylpyrazol-4-yl)-6H-pyrazolo[1,5-a][1,3,5]benzotriazepine] was over 7.30.
The value for `Fc1cccc(F)c1C1=Nc2c(Cl)cnn2-c2cc(N3CCC(F)(F)C3)ccc2N1` [3-chloro-5-(2,6-difluorophenyl)-9-(3,3-difluoropyrrolidin-1-yl)-6H-pyrazolo[1,5-a][1,3,5]benzotriazepine] was over 7.30; that for `Fc1cccc(F)c1C1=Nc2c(Cl)cnn2-c2cc(N3CC(F)C3)ccc2N1` [3-chloro-5-(2,6-difluorophenyl)-9-(3-fluoroazetidin-1-yl)-6H-pyrazolo[1,5-a][1,3,5]benzotriazepine] was over 7.30; that for `COC1CN(c2ccc3c(c2)-n2ncc(Cl)c2N=C(c2c(F)cccc2F)N3)C1` [3-chloro-5-(2,6-difluorophenyl)-9-(3-methoxyazetidin-1-yl)-6H-pyrazolo[1,5-a][1,3,5]benzotriazepine] was over 7.30.
The value for `CN1CCN(c2ccc3c(c2)-n2ncc(Cl)c2N=C(c2c(F)cccc2F)N3)CC1` [3-chloro-5-(2,6-difluorophenyl)-9-(4-methylpiperazin-1-yl)-6H-pyrazolo[1,5-a][1,3,5]benzotriazepine] was over 7.30; that for `Fc1cccc(F)c1C1=Nc2c(Cl)cnn2-c2cc(N3CC4(CC(F)C4)C3)ccc2N1` [3-chloro-5-(2,6-difluorophenyl)-9-(6-fluoro-2-azaspiro[3.3]heptan-2-yl)-6H-pyrazolo[1,5-a][1,3,5]benzotriazepine] was over 7.30; that for `Fc1cccc(F)c1C1=Nc2c(Cl)cnn2-c2cc(N3CCCC3)ccc2N1` [3-chloro-5-(2,6-difluorophenyl)-9-(pyrrolidin-1-yl)-6H-benzo[f]pyrazolo[1,5-a][1,3,5]triazepine] was over 7.30.
In the case of `Fc1cccc(F)c1C1=Nc2c(Cl)cnn2-c2cc(N3CC[C@@H](F)C3)ccc2N1` [3-chloro-5-(2,6-difluorophenyl)-9-[(3R)-3-fluoropyrrolidin-1-yl]-6H-pyrazolo[1,5-a][1,3,5]benzotriazepine], the pIC50 is over 7.30.
In turn, `Fc1cccc(F)c1C1=Nc2c(Cl)cnn2-c2cc(N3CC[C@H](F)C3)ccc2N1` [3-chloro-5-(2,6-difluorophenyl)-9-[(3S)-3-fluoropyrrolidin-1-yl]-6H-pyrazolo[1,5-a][1,3,5]benzotriazepine] showed a pIC50 of over 7.30.
The value for `Fc1cccc(F)c1C1=Nc2c(Cl)cnn2-c2cc(N3CCNCC3)ccc2N1` [3-chloro-5-(2,6-difluorophenyl)-9-piperazin-1-yl-6H-pyrazolo[1,5-a][1,3,5]benzotriazepine] was over 7.30; that for `CN(C)C(=O)c1ccc2c(c1)-n1ncc(Cl)c1N=C(c1c(F)cccc1F)N2` [3-chloro-5-(2,6-difluorophenyl)-N,N-dimethyl-6H-pyrazolo[1,5-a][1,3,5]benzotriazepine-9-carboxamide] was 6.70 to 7.30.
Consider `O=C(NCCF)c1ccc2c(c1)-n1ncc(Cl)c1N=C(c1c(F)cccc1F)N2` [3-chloro-5-(2,6-difluorophenyl)-N-(2-fluoroethyl)-6H-pyrazolo[1,5-a][1,3,5]benzotriazepine-9-carboxamide], for which the pIC50 was over 7.30.
`O=C(NCCO)c1ccc2c(c1)-n1ncc(Cl)c1N=C(c1c(F)cccc1F)N2` [3-chloro-5-(2,6-difluorophenyl)-N-(2-hydroxyethyl)-6H-pyrazolo[1,5-a][1,3,5]benzotriazepine-9-carboxamide] had a pIC50 of over 7.30.
As for `COCCNC(=O)c1ccc2c(c1)-n1ncc(Cl)c1N=C(c1c(F)cccc1F)N2` [3-chloro-5-(2,6-difluorophenyl)-N-(2-methoxyethyl)-6H-pyrazolo[1,5-a][1,3,5]benzotriazepine-9-carboxamide], the figure is over 7.30.
The value for `O=C(NC1COC1)c1ccc2c(c1)-n1ncc(Cl)c1N=C(c1c(F)cccc1F)N2` [3-chloro-5-(2,6-difluorophenyl)-N-(oxetan-3-yl)-6H-benzo[f]pyrazolo[1,5-a][1,3,5]triazepine-9-carboxamide] was over 7.30; that for `CC(C)NC(=O)c1ccc2c(c1)-n1ncc(Cl)c1N=C(c1c(F)cccc1F)N2` [3-chloro-5-(2,6-difluorophenyl)-N-isopropyl-6H-pyrazolo[1,5-a][1,3,5]benzotriazepine-9-carboxamide] was over 7.30; that for `CONC(=O)c1ccc2c(c1)-n1ncc(Cl)c1N=C(c1c(F)cccc1F)N2` [3-chloro-5-(2,6-difluorophenyl)-N-methoxy-6H-pyrazolo[1,5-a][1,3,5]benzotriazepine-9-carboxamide] was over 7.30.
The value for `CNC(=O)c1ccc2c(c1)-n1ncc(Cl)c1N=C(c1c(F)cccc1F)N2` [3-chloro-5-(2,6-difluorophenyl)-N-methyl-6H-pyrazolo[1,5-a][1,3,5]benzotriazepine-9-carboxamide] was over 7.30; that for `Fc1cccc(F)c1C1=Nc2c(Cl)cnn2-c2cc(N3CCNC4(CC4)C3)ccc2N1` [3-chloro-9-(4,7-diazaspiro[2.5]octan-7-yl)-5-(2,6-difluorophenyl)-6H-pyrazolo[1,5-a][1,3,5]benzotriazepine] was over 7.30; that for `O=C(NCC1CC1)c1ccc2c(c1)-n1ncc(Cl)c1N=C(c1c(F)cccc1F)N2` [3-chloro-N-(cyclopropylmethyl)-5-(2,6-difluorophenyl)-6H-pyrazolo[1,5-a][1,3,5]benzotriazepine-9-carboxamide] was over 7.30.
`O=C(NC1CCC1)c1ccc2c(c1)-n1ncc(Cl)c1N=C(c1c(F)cccc1F)N2` [3-chloro-N-cyclobutyl-5-(2,6-difluorophenyl)-6H-pyrazolo[1,5-a][1,3,5]benzotriazepine-9-carboxamide]: the pIC50 is over 7.30.
As for `O=C(NC1CCCC1)c1ccc2c(c1)-n1ncc(Cl)c1N=C(c1c(F)cccc1F)N2` [3-chloro-N-cyclopentyl-5-(2,6-difluorophenyl)-6H-pyrazolo[1,5-a][1,3,5]benzotriazepine-9-carboxamide], the figure is over 7.30.
